These results are taken from patent US20250221971A1, “METHODS OF TREATMENT FOR CYSTIC FIBROSIS” (Vertex Pharmaceuticals Incorporated, priority 2022, published 2025).

Each structure is given as a SMILES string. pEC50: −log10 of the molar value.

Data set [1] can be described thus: First-in-human clinical study of safety, tolerability and PK in healthy subjects. Particulars: all cohorts (Parts A, B, C), single doses 0.6-540 mg, multiple total daily doses 2-315 mg. It is filed as in vivo. The method, then: In a first-in-human (FIH) clinical study of Compound I, designed to evaluate the safety, tolerability, and pharmacokinetics (PK) of Compound I in healthy subjects, an assessment of drug-drug interactions (DDIs) between Compound I and itraconazole and midazolam was conducted.
This first-in-human (FIH) study of Compound I included three parts (Parts A, B, and C).
Approximately 154 healthy adult subjects were planned to be enrolled in planned cohorts. Approximately 76 subjects were planned to be enrolled in Part A, approximately 48 subjects in Part B, and approximately 30 subjects in Part C. There was no pre-specified ratio of males to females, but reasonable effort was made to enroll females of non-childbearing potential in all dosing cohorts.
Six dose escalation cohorts each were planned for Parts A and B. Additional cohorts in Part A were enrolled based on data from previous cohorts. In each cohort, approximately eight subjects were randomized 3:1 to receive Compound I or placebo as a suspension, under fasted or fed conditions. Eight subjects were enrolled in food-effect Cohort A9 to receive open-label Compound I; subsequent cohorts were dosed under fed conditions. […]
Food effect was evaluated in open-label, single-sequence Cohort A9 to evaluate the effect of food on the PK of Compound I based on emerging PK data during dose escalation. […]

For data set [2], the target named is T1, CFTR in F508del/MF-HBE cells (Homo sapiens, UniProt P13569, DEL508-508).
T1 construct: human bronchial epithelial (HBE) cells derived from CF subjects heterozygous for F508del and a minimal function CFTR mutation; endogenous in cells; host or cells: primary human bronchial epithelial cells from CF subjects (F508del/MF-HBE)
T1 sequence (P13569 with tags, fused parts or gaps DEL508-508): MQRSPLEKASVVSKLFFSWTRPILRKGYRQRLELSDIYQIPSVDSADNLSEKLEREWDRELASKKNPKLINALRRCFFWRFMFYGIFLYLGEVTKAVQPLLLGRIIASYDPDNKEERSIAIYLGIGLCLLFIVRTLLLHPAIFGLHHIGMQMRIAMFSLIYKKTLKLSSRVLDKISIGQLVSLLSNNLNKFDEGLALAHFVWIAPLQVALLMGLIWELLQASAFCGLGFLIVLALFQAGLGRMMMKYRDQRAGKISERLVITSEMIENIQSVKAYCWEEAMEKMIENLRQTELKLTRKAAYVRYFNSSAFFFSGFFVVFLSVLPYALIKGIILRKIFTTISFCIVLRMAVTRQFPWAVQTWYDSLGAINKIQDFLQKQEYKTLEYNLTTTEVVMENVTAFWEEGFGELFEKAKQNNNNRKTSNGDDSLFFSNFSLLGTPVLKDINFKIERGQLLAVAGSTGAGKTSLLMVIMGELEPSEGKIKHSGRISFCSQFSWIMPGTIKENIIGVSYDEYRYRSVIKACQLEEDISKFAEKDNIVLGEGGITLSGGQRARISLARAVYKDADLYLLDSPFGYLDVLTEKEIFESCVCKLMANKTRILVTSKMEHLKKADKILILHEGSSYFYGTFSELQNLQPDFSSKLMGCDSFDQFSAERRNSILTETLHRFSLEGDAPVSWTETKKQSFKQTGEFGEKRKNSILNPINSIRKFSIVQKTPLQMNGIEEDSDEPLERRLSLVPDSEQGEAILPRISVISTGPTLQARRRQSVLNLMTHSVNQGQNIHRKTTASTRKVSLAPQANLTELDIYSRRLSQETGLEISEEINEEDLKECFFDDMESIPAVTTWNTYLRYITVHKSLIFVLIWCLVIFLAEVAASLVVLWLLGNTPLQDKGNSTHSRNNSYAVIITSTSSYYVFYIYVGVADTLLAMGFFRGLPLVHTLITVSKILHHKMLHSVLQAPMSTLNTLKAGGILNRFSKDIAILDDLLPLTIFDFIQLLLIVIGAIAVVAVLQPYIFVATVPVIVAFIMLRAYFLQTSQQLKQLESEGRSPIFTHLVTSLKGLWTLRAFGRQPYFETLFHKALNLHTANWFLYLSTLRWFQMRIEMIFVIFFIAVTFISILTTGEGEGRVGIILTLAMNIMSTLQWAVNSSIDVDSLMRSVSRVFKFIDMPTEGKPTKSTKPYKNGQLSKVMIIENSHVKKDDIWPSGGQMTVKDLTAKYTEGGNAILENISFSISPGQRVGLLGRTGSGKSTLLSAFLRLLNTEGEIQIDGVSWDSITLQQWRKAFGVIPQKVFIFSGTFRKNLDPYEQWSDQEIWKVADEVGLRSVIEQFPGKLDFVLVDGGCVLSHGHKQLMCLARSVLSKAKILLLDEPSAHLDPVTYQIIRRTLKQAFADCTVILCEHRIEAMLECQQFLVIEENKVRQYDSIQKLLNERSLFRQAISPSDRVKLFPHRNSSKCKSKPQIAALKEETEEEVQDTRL
Put plainly: Ussing chamber assay of CFTR-mediated short-circuit currents (potentiator identification). It is filed as cell-based. Particulars: with 10 μM Compound VII, 18-24 hours at 37° C., 20% human serum. On the procedure:
Ussing chamber experiments were performed using human bronchial epithelial (HBE) cells derived from CF subjects heterozygous for F508del and a minimal function CFTR mutation (F508del/MF-HBE) and cultured as previously described (Neuberger T., Burton B., Clark H., Van Goor F. Methods Mol Biol 2011:741:39-54). After four days the apical media was removed, and the cells were grown at an air liquid interface for >14 days prior to use.
To isolate the CFTR-mediated short-circuit (ISC) current, F508del/MF-HBE grown on Costar® Snapwell™ cell culture inserts were mounted in an Ussing chamber and the transepithelial ISC was measured under voltage-clamp recording conditions (Vhold=0 mV) at 37° C. The basolateral solution contained (in mM) 145 NaCl, 0.83 K2HPO4, 3.3 KH2PO4, 1.2 MgCl2, 1.2 CaCl2), 10 Glucose, 10 HEPES (pH adjusted to 7.4 with NaOH) and the apical solution contained (in mM) 145 NaGluconate, 1.2 MgCl2, 1.2 CaCl2), 10 glucose, 10 HEPES (pH adjusted to 7.4 with NaOH) and 30 μM amiloride to block the epithelial sodium channel. […] The CFTR-mediated ISC (μA/cm^2) for each condition was determined from the peak forskolin response to the steady-state current following inhibition.
The activity of the CFTR potentiator compounds on the CFTR-mediated ISC was determined in Ussing chamber studies as described above. […]

For `C[C@@H]1CCCCC[C@](O)(C(F)(F)F)C2=NN=C(O2)c2nc(c(C(F)(F)F)cc2N)O1` [Compound I, (6R,12R)-17-amino-12-methyl-6,15-bis(trifluoromethyl)-13,19-dioxa-3,4,18-triazatricyclo[12.3.1.12,5]nonadeca-1(18),2,4,14,16-pentaen-6-ol], the safety and tolerability entry in data set [1] is “generally safe and well-tolerated”. For the same compound, the pEC50 in data set [2] was above 6.30.
